The text below walks through data of patent US10906894B2, “Compounds containing benzo[d][1,3]oxathiole, benzo[d][1,3]oxathiole 3-oxide or benzo[d][1,3]oxathiole 3,3-dioxide and methods/uses thereof as agonists of g protein-coupled receptor 119” (PRAMANA PHARMACEUTICALS INC., priority 2016, dated 2021).

The target in test [1] is T1, GPR119 (Homo sapiens, UniProt Q8TDV5).
T1 sequence (Q8TDV5 1-335): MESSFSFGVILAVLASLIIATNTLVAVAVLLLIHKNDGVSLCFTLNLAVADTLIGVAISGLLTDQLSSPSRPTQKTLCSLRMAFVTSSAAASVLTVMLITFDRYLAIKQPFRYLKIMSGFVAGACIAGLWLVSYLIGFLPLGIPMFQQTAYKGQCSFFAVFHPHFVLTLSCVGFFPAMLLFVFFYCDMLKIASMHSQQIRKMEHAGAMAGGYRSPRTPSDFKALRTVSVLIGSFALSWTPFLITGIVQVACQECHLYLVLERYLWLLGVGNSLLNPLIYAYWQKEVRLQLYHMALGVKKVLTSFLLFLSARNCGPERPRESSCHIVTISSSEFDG
Nature of the test: PathHunter β-arrestin assay (enzyme fragment complementation, β-galactosidase reporter) monitoring activation of GPR119. The test is classed as cell-based. More on the design: β-galactosidase enzyme fragment for EFC (by own knowledge the ProLink tag, fused to the receptor's C-terminus in PathHunter lines). As to conditions: for EC50: Table B-3; for Emax: Table B-3, read-out: % cAMP Max. How it is done: Certain test compounds were evaluated using the PathHunterR β-arrestin assay, which monitors the activation of GPR119 in a homogenous, non-imaging assay format using the enzyme fragment complementation (EFC) technology (DiscoverX Corporation, Fremont, Calif. U.S.A.; www.discoverx.com) with β-galactosidase as the functional reporter.

Test [2] addresses T1, GPR119. Nature of the test: LANCE Ultra cAMP assay: stimulation of GPR119-mediated cAMP production in CHO cells stably expressing human GPR119 receptor. The test is classed as cell-based. As to conditions: for Emax: CHO. The protocol:
The potency of GPR119 receptor agonists was assessed by measuring the stimulation of GPR119-mediated cAMP production with LANCE Ultra cAMP assay (Perkin Elmer, TRF0264) in CHO cells stably expressing human GPR119 receptor (Chantest, cat. #A633). CHO-GPR119 cells were cultured in DMEM/F12 medium supplemented with 10% FBS and 1% NEAA at 37° C., 5% CO2, aliquoted and frozen in liquid nitrogen.
For assay, cells were thawed in a water bath at 37° C., washed in Hank's Balanced Salt Solution (HBSS) and resuspended in Stimulation Buffer 1 (SB1) for 30 min: 5 mM HEPES, pH 7.2-7.4, 0.1% BSA in HBSS. […] The ULight-anti-cAMP antibody (Perkin Elmer, TRF0264) was added to the cell suspension making Mix [Cell suspension/4× ULight-anti-cAMP antibodies]. […] The assay plate was centrifuged 200 g, 5 sec.
Serial dilution (100×) of tested compounds were prepared in DMSO in the range of from 30 nM to 1 mM with half-log step in 384-well plates (Greiner, 781280) using Biomek 2000. 10 test concentrations in two repeats were prepared for each CRC. […] The assay plate was incubated 30 minutes at room temperature on a shaker, 250 rpm to allow GPR119 receptor stimulation. The cAMP level was determined according to the standard kit supplier protocol (PerkinElmer, cat. #TRF0264).
(§1) The stock solution of the Eu-cAMP tracer (Perkin Elmer, TRF0264) was diluted 1:100 in cAMP Detection Buffer (Perkin Elmer, TRF0264), making 2× working concentration and added to the assay plate, 10 μL per well. Assay plate was centrifuged 180 g, 1 sec. Then the assay plate was incubated for 60′ at room temperature on shaker, 250 rpm to allow cAMP detection. The TR-FRET signal was measured at Ex-340 nm/Em-615 and Ex-340 nm/Em-665 nm on the reader Tecan M1000. 0% of cAMP stimulation corresponds to the cells with DMSO only, 100% of cAMP stimulation corresponds to the cells with 10 uM Forskolin. The EC50 value defined as the concentration of the drug that gives half-maximal response, were calculated using GraphPad Prizm 5.0 software with forskolin was used as references at each test. Entries 1-17 in Table A-2 show the biological activity of certain representative compounds using the protocol as described above.
For assay, cells were thawed in a water bath at 37° C., washed in Hank's Balanced Salt Solution (HBSS) and resuspended in Stimulation Buffer 1 (SB1) for 30 min: 5 mM HEPES, pH 7.2-7.4, 0.1% BSA in HBSS. […] The ULight-anti-cAMP antibody (Perkin Elmer, TRF0264) was added to the cell suspension, making Mix [Cell suspension/4× ULight-anti-cAMP antibodies]. […] The assay plate was centrifuged 200 g, 5 sec.
as §1, with “1-14” for “1-17”, “B-2” for “A-2”
On the technique in general: Time-resolved FRET reads energy transfer from a long-lived donor to a nearby acceptor.

[3] abbreviates: Table B-2 entries 15-39, modified protocol, 500 cells/well, read-out: % cAMP Max.
Where [4] appears, read: Table B-2 entries 15-39, modified protocol, 500 cells/well.
Setting [5] is: Table A-2 entries 1-17, protocol as described, 100% = 10 uM Forskolin, read-out: % cAMP Max. relative to forscolin.
[6] abbreviates: Table A-2 entries 1-17, protocol as described (800 000 cells/mL, 5 uL/well), CHO-GPR119 cells.
Where [7] appears, read: Table A-2 entries 18-25, modified protocol, 500 cells/well, read-out: % cAMP Max. relative to forscolin.
Setting [8] is: Table A-2 entries 18-25, modified protocol, 500 cells/well.

The term EC50 denotes the concentration needed to bring the measured effect to its halfway point. Lower therefore signals higher potency in that assay. As to `[O-][S@@+]1COc2cc(-c3ccc(OC[C@H]4CCN(c5ncc(Cl)cn5)C4)c(F)c3)ccc21` [Example B-86, (R)-6-(4-(((S)-1-(5-Chloropyrimidin-2-yl)pyrrolidine-3-yl)methoxy)-3-fluorophenyl)-2H-benzo[d][1,3]oxathiole 3-oxide], the figures for the EC50 at GPR119 [1] and on GPR119 [2] (setting [4]) were 108 nM and 4.6 nM, respectively. The Emax at GPR119 [1] was 133%; on GPR119 [2] (setting [3]), 93%.

As to `CC(C)c1cnc(N2CCC(COc3ccc(-c4ccc5c(c4)OC[S@@+]5[O-])cc3F)CC2)nc1` [Example B-46, (S)-6-(3-fluoro-4-((1-(5-isopropylpyrimidin-2-yl)piperidin-4-yl)methoxy)phenyl)-2H-benzo[d][1,3]oxathiole 3-oxide], the EC50 at GPR119 [1] was 7.9 nM; on GPR119 [2] (setting [4]) it was 10.1 nM. Further, the Emax at GPR119 [1] was 164%; at GPR119 [2] (setting [3]), 82%.

As to `[O-][S@@+]1COc2cc(-c3ccc(OCC4CCN(c5ncc(Cl)cn5)CC4)c(F)c3)ccc21` [Example B-34, (R)-6-(4-((1-(5-chloropyrimidin-2-yl)piperidin-4-yl)methoxy)-3-fluorophenyl)-2H-benzo[d][1,3]oxathiole-3-oxide], on GPR119 [1], the response was half-maximal at 35.7 nM (EC50) and the Emax was determined as 172%. This compound also gave an EC50 on GPR119 [2] (Table B-2 entries 1-14, protocol as described (800 000 cells/mL, 5 uL/well), CHO-GPR119 cells) of 0.9 nM.

As for `CCc1cnc(N2CC[C@H](COc3ccc(-c4ccc5c(c4)OC[S@@+]5[O-])cc3)C2)nc1` [Example B-91, (S)-6-(4-(((S)-1-(5-Ethylpyrimidin-2-yl)pyrrolidine-3-yl)methoxy)phenyl)-2H-benzo[d][1,3]oxathiole 3-oxide], the values for the EC50 at GPR119 [1] and on GPR119 [2] (setting [4]) were 222 nM and 10.3 nM, respectively. Further, the Emax on GPR119 [1] is 155%; on GPR119 [2] (setting [3]), 93%.

`COc1cnc(N2CCC(COc3ccc(-c4ccc5c(c4)OC[S@@+]5[O-])cc3F)CC2)nc1` [Example B-50, (S)-6-(3-Fluoro-4-((1-(5-methoxypyrimidin-2-yl)piperidin-4-yl)methoxy)phenyl)-2H-benzo[d][1,3]oxathiole 3-oxide]: the EC50 was 16.4 nM at GPR119 [1] and 3.7 nM at GPR119 [2] (setting [4]). Moreover, the Emax on GPR119 [1] was determined as 169%; at GPR119 [2] (setting [3]) it was 66%.

Regarding `[O-][S@+]1COc2cc(-c3ccc(OCC4CCN(c5ncc(Cl)cn5)CC4)c(F)c3)ccc21` [Example B-59, (S)-6-(4-((1-(5-Chloropyrimidin-2-yl)piperidin-4-yl)methoxy)-3-fluorophenyl)-2H-benzo[d][1,3]oxathiole 3-oxide], the concentration for a half-maximal effect (EC50) at GPR119 [1] was determined as 6.7 nM; at GPR119 [2] (setting [4]), 1.7 nM. For the same compound, the Emax at GPR119 [1] came to 175%; on GPR119 [2] (setting [3]) it was 70%.

As to `CCc1ccnc(N2CC[C@H](COc3ccc(-c4ccc5c(c4)OC[S@+]5[O-])cc3F)C2)n1` [Example B-85, (R)-6-(4-(((S)-1-(4-Ethylpyrimidin-2-yl)pyrrolidine-3-yl)methoxy)-3-fluorophenyl)-2H-benzo[d][1,3]oxathiole 3-oxide], the values for the EC50 on GPR119 [1] and at GPR119 [2] (setting [4]) were 657 nM and 13 nM, respectively. Also, the Emax worked out at 73% at GPR119 [1] and 64% at GPR119 [2] (setting [3]).

As for `CCc1cnc(N2CC[C@H](COc3ccc(-c4ccc5c(c4)OC[S@@+]5[O-])cc3F)C2)nc1` [Example B-75, (S)-6-(4-(((S)-1-(5-Ethylpyrimidin-2-yl)pyrrolidin-3-yl)methoxy)-3-fluorophenyl)-2H-benzo[d][1,3]oxathiole 3-oxide], the EC50 at GPR119 [1] worked out at 60 nM; on GPR119 [2] (setting [4]), 17.7 nM. In addition, the Emax on GPR119 [1] was determined as 190%; at GPR119 [2] (setting [3]), 88%.

With `CC(C)c1noc(N2CCC(COc3ccc(-c4ccc5c(c4)OCS5(=O)=O)cc3F)CC2)n1` [Example A-59, 6-(3-Fluoro-4-((1-(3-isopropyl-1,2,4-oxadiazol-5-yl)piperidin-4-yl)methoxy)phenyl)-2H-benzo[d][1,3]oxathiole 3,3-dioxide], the Emax at GPR119 [2] (setting [5]) is 77%. Moreover, the EC50 on GPR119 [2] (setting [6]) is 5.4 nM.

For the compound `O=S1(=O)COc2cc(-c3ccc(OCC4CN(c5ncc(Cl)cn5)C4)c(F)c3)ccc21` [A-48, 6-(4-((1-(5-Chloropyrimidin-2-yl)azetidin-3-yl)methoxy)-3-fluorophenyl)-2H-benzo[d][1,3]oxathiole 3,3-dioxide], at GPR119 [2] (setting [5]), the Emax worked out at 80%. The compound also showed an EC50 at GPR119 [2] (setting [6]) of 67 nM.

For `CCc1cnc(N2CCC[C@@H]2COc2ccc(-c3ccc4c(c3)OCS4(=O)=O)cc2F)nc1` [Example A-71], at GPR119 [2] (setting [7]), the Emax came out at 51%. The EC50 at GPR119 [2] (setting [8]) was 1690 nM.

`[O-][S@+]1COc2cc(-c3ccc(OC[C@H]4CCN(c5ncc(Cl)cn5)C4)c(F)c3)ccc21` [Example B-81, (S)-6-(4-(((S)-1-(5-Chloropyrimidin-2-yl)pyrrolidin-3-yl)methoxy)-3-fluorophenyl)-2H-benzo[d][1,3]oxathiole 3-oxide]: the Emax at GPR119 [2] (setting [3]) came out at 95%. For the same compound, a half-maximal effect at GPR119 [2] (setting [4]) (EC50) was put at 30 nM.

With `O=S1(=O)COc2cc(-c3ccc(OC[C@H]4CCN(c5ncc(Cl)cn5)C4)c(F)c3)ccc21` [Example A-89, (S)-6-(4-((1-(5-Chloropyrimidin-2-yl)pyrrolidin-3-yl)methoxy)-3-fluorophenyl)-2H-benzo[d][1,3]oxathiole 3,3-dioxide], the Emax at GPR119 [2] (setting [7]) stood at 93%. Besides, at GPR119 [2] (setting [8]), the EC50 is 46 nM.

As for `CCc1ccnc(N2CC[C@H](COc3ccc(-c4ccc5c(c4)OC[S@@+]5[O-])cc3F)C2)n1` [Example B-84, (S)-6-(4-(((S)-1-(4-Ethylpyrimidin-2-yl)pyrrolidine-3-yl)methoxy)-3-fluorophenyl)-2H-benzo[d][1,3]oxathiole 3-oxide], the EC50 came to 567 nM on GPR119 [1] and 31.5 nM at GPR119 [2] (setting [4]). Also, the Emax on GPR119 [1] came to 117%; on GPR119 [2] (setting [3]) it was 92%.

Turning to `CN(C)C(=O)N1CCC(COc2ccc(-c3ccc4c(c3)OCS4(=O)=O)cc2F)CC1` [A-14], the Emax at GPR119 [2] (setting [5]) was determined as 77%. For the same compound, the EC50 on GPR119 [2] (setting [6]) was 86.4 nM.

`CCc1cnc(N2CCC(COc3ccc(-c4ccc5c(c4)OCS5)cc3F)CC2)nc1` [Example B-37, 2-(4-((4-(Benzo[d][1,3]oxathiol-6-yl)-2-fluorophenoxy)methyl)piperidin-1-yl)-5-ethylpyrimidine]: the Emax on GPR119 [2] (setting [3]) is 79%. The compound further displayed an EC50 at GPR119 [2] (setting [4]) of 365 nM.
